In PMC12210654, “Palazestrant, a novel oral Complete Estrogen Receptor Antagonist (CERAN) and Selective Estrogen Receptor Degrader (SERD), in patients with ER+/HER2− advanced or metastatic breast cancer: phase 1/2 study results” (Breast Cancer Research : BCR, 2025):

Assay: Safety: adverse events (NCI CTCAE v5.0), electrocardiograms
Type: in vivo, human
Settings: for TEAE Neutropenia, Any grade / TEAE Neutropenia, Grade 3 / TEAE Neutropenia, Grade 4 / TRAE Neutropenia, Any grade / TRAE Neutropenia, Grade 3 / TRAE Neutropenia, Grade 4: includes neutropenia, neutrophil count decreased, febrile neutropenia
Description: Safety assessments included the monitoring of AEs, clinical laboratory parameters, electrocardiograms, and vital signs. AE severity was graded according to the National Cancer Institute Common Terminology Criteria for Adverse Events (version 5.0).
All DLT analyses (phase 1a) were performed in patients enrolled in the study during cycle 1 and who either received 75% of the planned palazestrant doses or experienced a DLT during cycle 1. All PK analyses were performed in patients who received at least 1 dose of palazestrant and had adequate postbaseline PK samples for characterization of PK parameters. All safety analyses were performed and PFS assessed in patients who received at least 1 dose of palazestrant. Clinical response (CR or PR) was assessed in patients who received at least 1 cycle of palazestrant, had measurable disease at baseline, and had at least 1 postbaseline tumor assessment. CBR was assessed in patients who received at least 1 cycle of palazestrant, had at least 1 postbaseline tumor assessment, and started their first dose at least 24 weeks before data cutoff. Patients who discontinued study treatment without radiographic progression within 24 weeks from the first dose were not included in the CBR analysis. PK parameters were estimated using conventional noncompartmental methods. For CBR, estimates were accompanied by 2-sided 95% confidence intervals (95% CIs). For PFS, Kaplan–Meier analyses were used to determine medians, event-free rates, and 95% CIs. For all other outcomes, categorical data were analyzed using frequencies and percentages, and continuous data were analyzed using means (standard deviation) or medians (range), as appropriate.

In the case of CCCN1CC(Oc2ccc([C@@H]3c4[nH]c5ccccc5c4C[C@@H](C)N3CC(C)(C)F)cc2)C1 [palazestrant, Palazestrant], the “TEAE Constipation, Any grade” value (60 mg (n = 30)) is reported as 6 (20.0) n (%), the “TEAE Constipation, Grade 3” value (60 mg (n = 30)) is reported as 0 n (%) and the “TEAE Constipation, Grade 4” value (60 mg (n = 30)) is reported as 0 n (%). The “TEAE Diarrhea, Any grade” value (60 mg (n = 30)) was 6 (20.0) n (%), the “TEAE Diarrhea, Grade 3” value (60 mg (n = 30)) was 1 (3.3) n (%) and the “TEAE Diarrhea, Grade 4” value (60 mg (n = 30)) was 0 n (%). For the same compound, the “TEAE Fatigue, Any grade” value (60 mg (n = 30)) was 13 (43.3) n (%), the “TEAE Fatigue, Grade 3” value (60 mg (n = 30)) was 0 n (%) and the “TEAE Fatigue, Grade 4” value (60 mg (n = 30)) was 0 n (%). The “TEAE Headache, Any grade” value (60 mg (n = 30)) was 7 (23.3) n (%), the “TEAE Headache, Grade 3” value (60 mg (n = 30)) was 0 n (%) and the “TEAE Headache, Grade 4” value (60 mg (n = 30)) was 0 n (%). The “TEAE Nausea, Any grade” value (60 mg (n = 30)) was 14 (46.7) n (%), the “TEAE Nausea, Grade 3” value (60 mg (n = 30)) was 0 n (%) and the “TEAE Nausea, Grade 4” value (60 mg (n = 30)) was 0 n (%). The “TEAE Vomiting, Any grade” value (60 mg (n = 30)) was 5 (16.7) n (%), the “TEAE Vomiting, Grade 3” value (60 mg (n = 30)) was 0 n (%) and the “TEAE Vomiting, Grade 4” value (60 mg (n = 30)) was 0 n (%). For the same compound, the “TRAE Fatigue, Any grade” value (60 mg (n = 30)) was 9 (30.0) n (%), the “TRAE Fatigue, Grade 3” value (60 mg (n = 30)) was 0 n (%) and the “TRAE Fatigue, Grade 4” value (60 mg (n = 30)) was 0 n (%). For the same compound, the “TRAE Headache, Any grade” value (60 mg (n = 30)) was 3 (10.0) n (%), the “TRAE Headache, Grade 3” value (60 mg (n = 30)) was 0 n (%) and the “TRAE Headache, Grade 4” value (60 mg (n = 30)) was 0 n (%). For the same compound, the “TRAE Nausea, Any grade” value (60 mg (n = 30)) was 10 (33.3) n (%), the “TRAE Nausea, Grade 3” value (60 mg (n = 30)) was 0 n (%) and the “TRAE Nausea, Grade 4” value (60 mg (n = 30)) was 0 n (%). The “TRAE Vomiting, Any grade” value (60 mg (n = 30)) was 3 (10.0) n (%), the “TRAE Vomiting, Grade 3” value (60 mg (n = 30)) was 0 n (%) and the “TRAE Vomiting, Grade 4” value (60 mg (n = 30)) was 0 n (%). For the same compound, the “TEAE Neutropenia, Any grade” value (60 mg (n = 30)) was 2 (6.7) n (%), the “TEAE Neutropenia, Grade 3” value (60 mg (n = 30)) was 0 n (%) and the “TEAE Neutropenia, Grade 4” value (60 mg (n = 30)) was 0 n (%). For the same compound, the “TRAE Neutropenia, Any grade” value (60 mg (n = 30)) was 0 n (%), the “TRAE Neutropenia, Grade 3” value (60 mg (n = 30)) was 0 n (%) and the “TRAE Neutropenia, Grade 4” value (60 mg (n = 30)) was 0 n (%). For the same compound, the “TEAE Constipation, Any grade” value (120 mg (n = 86)) was 15 (17.4) n (%), the “TEAE Constipation, Grade 3” value (120 mg (n = 86)) was 0 n (%) and the “TEAE Constipation, Grade 4” value (120 mg (n = 86)) was 0 n (%). The “TEAE Diarrhea, Any grade” value (120 mg (n = 86)) was 12 (14.0) n (%), the “TEAE Diarrhea, Grade 3” value (120 mg (n = 86)) was 0 n (%) and the “TEAE Diarrhea, Grade 4” value (120 mg (n = 86)) was 0 n (%). The “TEAE Fatigue, Any grade” value (120 mg (n = 86)) was 22 (25.6) n (%), the “TEAE Fatigue, Grade 3” value (120 mg (n = 86)) was 3 (3.5) n (%) and the “TEAE Fatigue, Grade 4” value (120 mg (n = 86)) was 0 n (%). The “TEAE Headache, Any grade” value (120 mg (n = 86)) was 17 (19.8) n (%), the “TEAE Headache, Grade 3” value (120 mg (n = 86)) was 0 n (%) and the “TEAE Headache, Grade 4” value (120 mg (n = 86)) was 0 n (%). For the same compound, the “TEAE Nausea, Any grade” value (120 mg (n = 86)) was 54 (62.8) n (%), the “TEAE Nausea, Grade 3” value (120 mg (n = 86)) was 3 (3.5) n (%) and the “TEAE Nausea, Grade 4” value (120 mg (n = 86)) was 0 n (%). For the same compound, the “TEAE Vomiting, Any grade” value (120 mg (n = 86)) was 25 (29.1) n (%), the “TEAE Vomiting, Grade 3” value (120 mg (n = 86)) was 4 (4.7) n (%) and the “TEAE Vomiting, Grade 4” value (120 mg (n = 86)) was 0 n (%). The “TRAE Fatigue, Any grade” value (120 mg (n = 86)) was 17 (19.8) n (%), the “TRAE Fatigue, Grade 3” value (120 mg (n = 86)) was 2 (2.3) n (%) and the “TRAE Fatigue, Grade 4” value (120 mg (n = 86)) was 0 n (%). For the same compound, the “TRAE Headache, Any grade” value (120 mg (n = 86)) was 13 (15.1) n (%), the “TRAE Headache, Grade 3” value (120 mg (n = 86)) was 0 n (%) and the “TRAE Headache, Grade 4” value (120 mg (n = 86)) was 0 n (%). For the same compound, the “TRAE Nausea, Any grade” value (120 mg (n = 86)) was 47 (54.7) n (%), the “TRAE Nausea, Grade 3” value (120 mg (n = 86)) was 3 (3.5) n (%) and the “TRAE Nausea, Grade 4” value (120 mg (n = 86)) was 0 n (%). The “TRAE Vomiting, Any grade” value (120 mg (n = 86)) was 21 (24.4) n (%), the “TRAE Vomiting, Grade 3” value (120 mg (n = 86)) was 2 (2.3) n (%) and the “TRAE Vomiting, Grade 4” value (120 mg (n = 86)) was 0 n (%). For the same compound, the “TEAE Neutropenia, Any grade” value (120 mg (n = 86)) was 21 (24.4) n (%), the “TEAE Neutropenia, Grade 3” value (120 mg (n = 86)) was 3 (3.5) n (%) and the “TEAE Neutropenia, Grade 4” value (120 mg (n = 86)) was 6 (7.0) n (%). For the same compound, the “TRAE Neutropenia, Any grade” value (120 mg (n = 86)) was 18 (20.9) n (%), the “TRAE Neutropenia, Grade 3” value (120 mg (n = 86)) was 3 (3.5) n (%) and the “TRAE Neutropenia, Grade 4” value (120 mg (n = 86)) was 5 (5.8) n (%). The “grade 4 neutropenia resolved with dose interruption followed by dose reduction, treatment continued with no further neutropenia” value (120 mg/day) was 3 patients, the “Grade 3 TEAE fatigue” value (120 mg/day (n = 86)) was 3.5% and the “Grade 3 TEAE nausea” value (120 mg/day (n = 86)) was 3.5%. For the same compound, the “Grade 3 TEAE neutropenia” value (120 mg/day (n = 86)) was 3.5%, the “Grade 3 TEAE vomiting” value (120 mg/day (n = 86)) was 4.7% and the “TEAE fatigue, any grade” value (120 mg/day (n = 86)) was 25.6%. The “TEAE nausea, any grade” value (120 mg/day (n = 86)) was 62.8%, the “TEAE vomiting, any grade” value (120 mg/day (n = 86)) was 29.1% and the “TRAE fatigue, any grade” value (120 mg/day (n = 86)) was 19.8%. The “TRAE headache, any grade” value (120 mg/day (n = 86)) was 15.1%.
